The test system of experiment [1] is lipid peroxides in the blood serum. Description: Antilipid Peroxidation Activity (B), lipid peroxides in blood serum of alloxan-injected mice. It is filed as in vivo, Male ddY mice. Conditions: ip, 24 hours after alloxan 85 mg/kg. The protocol: (B) Male ddY mice having a body weight of 24 to 27 g were used (i.e., 5 to 9 mice in one group). After 16 to 17 hours nestia, 85 mg/kg of alloxan was rapidly injected into the tail vein of the mice. After injecting the alloxan, the mice were subjected to free feeding and free water intaking and, 24 hours later, the sample compound was intraperitoneally injected into the mice. After an additional 24 hours, anesthesia was applied to the mice with ether and the blood of alvine aorta and cava was sampled. The amounts of the lipid peroxides in the blood serum were quantitatively measured according to a Yagi's method (i.e., K. Yagi, Biochem. Med., 15, 212, 1976).
The results were compared with that of a control group to which only a physiological saline was injected.

For experiment [2], the system named is Male ddY mice. The experiment in a line: Global Ischemia Activity (gasping time after decapitation). It is filed as in vivo. Conditions: for extension of the gasping time: at a dose of 50 mg/kg or less, injected. The protocol:
Male ddY mice having a body weight of 22 to 30 g were used (i.e., 6 mice in one group). The sample compound prepared in the Synthesis Example 1 or 7 was intraperitoneally injected into the mice and the mice were decapitated 30 minutes after the injection. After decapitation, the gasping times were determined. The results were compared with a control group to which only the saline was injected.

Experiment [3] concerns Male ddY mice. The experiment in a line: Scopolamine Amnesia Activity (step-through passive avoidance learning). In kind it is in vivo. Conditions: Mus musculus; ip immediately after first session; scopolamine 0.5 mg/kg hypodermically; retention test 24 hours later; read-out: Scopolamine Amnesia EDmin (Minimum effective dose). The source says:
Ten male ddY mice having a body weight of 22 to 30 g were used as one group. A slit was located between a light room and a dark room. In the dark room, an arrangement was made whereby an electric shock was given to the feet by an electric current. Thus, the behavior of the mice in relation to step-through to the dark room was studied. The mice were amnesically treated with an administration of scopolamine with or without the injection of the sample compound 1 or 7 and the time taken to avoid step-through by the mice to the dark room was determined by the so-called step-through passive avoidance learning method. The electric current used was 0.6 mA. The scopolamine was hypodermically injected in an amount of 0.5 mg/kg at 20 minutes prior to the first session and the sample compound was intraperitoneally injected immediately after the first session. The retention test (i.e., the second session) was carried out 24 hours later.

Experiment [4] deals with Male ddY mice. Description: Hypobaric Hypoxia Activity (survival time at 180 mmHg). In kind it is in vivo. The protocol: Male ddY mice having a body weight of 22 to 30 g were used (i.e., 7 to 10 mice in one group). The mice were […] sample compound prepared in the Synthesis Example 1 or 7 was intraperitoneally injected into the mice. The desiccator was evacuated 30 minutes after the injection and the time from the start of the evacuation to the termination of breathing by the mice was determined to be the survival time. If a mouse was still alive 15 minutes after exposure to the hypoxia, the survival time was assumed to be 15 minutes.

The subject of experiment [5] is Male ddY mice. Description: Normobaric Hypoxia Activity (survival time in 96% N2 and 4% O2). It is filed as in vivo. Conditions: ip, 30 minutes before. Here is the method: Male ddY mice having a body weight of 22 to 30 g were used (i.e., 7 to 10 mice in one group). The sample compound prepared in the Synthesis Example 1 or 7 was intraperitoneally injected into the mice and, 30 minutes later, the mice were placed in a desiccator having a volume of about 1 liter and filled with a gas mixture of 96% N2 and 4% O2. The survival time up to the termination of breathing by the mice was determined. During the test, the N2 --O2 gas mixture was continuously supplied at a rate of 3 l/min. When the survival time was more than 15 minutes, the survival time was assumed to be 15 minutes. The results were compared with a control group, to which only a physiological saline was injected.

Experiment [6] concerns rat brain homogenate. The experiment in a line: Antilipid Peroxidation Activity (A), rat brain homogenate, TBA reaction. Conditions: at 10^-4 M, 37° C., 30 minutes. It is filed as biochemical, Male Wister rats. The protocol:
(A) Male Wister rats having a body weight of 350 to 380 g were used. A rat was decapitated and the whole brain other than the cerebellum was homogenized in 10 times volume of ice cooled 50 mM buffered saline (PBS) having a pH of 7.4. The homogenized mixture was then centrifugally separated and the resultant supernatant frozen at a temperature of -30° C. The frozen specimen was melted in flowing water and was then diluted with 3 times volume PBS to prepare the diluted homogenate.
A 10 μl of a solution of the sample compound prepared in the Synthesis Example 1 or 7 was added to 1 ml of the diluted homogenate obtained above and the mixture was incubated at a temperature of 37° C. for 30 minutes. […]
As is the case of the test compound solution, 10 μl of the standard solution of tetramethoxypropane (TMP) was prepared and was added to the reaction mixture in amounts of 0 to 10 nmole/tube. […] Thereafter, the resultant layers were stabilized for 10 minutes at 2,000 rpm and the absorbance of the organic layer at 532 nm or the fluorescence intensity of the organic layer at 553 nm (excited at 515 nm) were determined. The lipid peroxide content was determined and represented a nmole number of malon dialdehyde (MDA) per mg of protein. The protein was determined by a Lawry method (i.e., Lawry et al., J. Biol. Chem., 193, 265 (1951)).

For experiment [7], the system named is Male mice. The experiment in a line: Hemicholinium No. 3 (HC-3) Induced Anoxia Activity (survival time). In kind it is in vivo. The following applies: Mus musculus; ip, 15 minutes before 5 mg/kg hemicholinium No. 3 into tail vein; read-out: HC-3 Induced Anoxia EDmin (Minimum effective dose). Here is the method: Male mice having a body weight of 22 to 30 g were used (i.e., 7 to 10 mice in one group). The sample compound prepared in the Synthesis Example 1 or 7 was intraperitoneally injected into the mice and, 15 minutes later, 5 mg/kg of hemicholinium No. 3 was injected into the tail vein of the mice. The time from the injection of hemicholinium No. 3 to the termination of breathing by the mice was determined to be the survival time. The results were compared with that of a control group to which only a physiological saline was injected.

The source of these data is patent US4766116A, “Diaryl butyric acid derivative and pharmaceutical use thereof” (Suntory Limited, priority 1984, dated 1988).

SMILES strings stand for the structures. Where a name gives a salt, the structure may show the parent alone.

As to `COc1ccc(O)c(C(CCC(=O)NCc2ccccn2)c2ccccc2)c1` (stereo not drawn) [Example 9], the “inhibition of the formation of the lipid peroxides” value (from here on “inhibition … of the lipid peroxides”) in experiment [1] (at a dose of 10 mg/kg) is given as “caused inhibition”.

Turning to `CCOC(=O)c1ccc(Oc2cccc(OC)c2)c(NC(=O)CCC(c2ccccc2)c2cc(OC)ccc2O)c1` (stereo not drawn) [Example 15], the “extension of the gasping time” value in experiment [2] was “significant difference in the extension of the gasping time”.

As for `COc1ccc(O)c(C(CCC(=O)N2CCN(c3ccccc3)CC2)c2ccccc2)c1` (stereo not drawn) [Example 4], the “inhibition … of the lipid peroxides” value in experiment [1] (at a dose of 10 mg/kg) was “caused inhibition”.

Take `COc1ccc(O)c(C(CCC(=O)N2CCCN(C(=O)CCC(c3ccccc3)c3cc(OC)ccc3O)CC2)c2ccccc2)c1` (stereo not drawn) [Example 31, N,N'-bis-[(4-(2-hydroxy-5-methoxy)phenyl-4-phenyl)-1-oxobutyl]homopiperazine]: in experiment [1] (at a dose of 50 mg/kg), the “inhibition … of the lipid peroxides” value is listed as “significant difference in the inhibition of the formation of the lipid peroxides”.

Take `COc1ccc(O)c(C(CCC(=O)NN2CCOCC2)c2ccccc2)c1` (stereo not drawn) [Example 12]: the “inhibition … of the lipid peroxides” value in experiment [1] (at a dose of 50 mg/kg) was “significant difference in the inhibition of the formation of the lipid peroxides”.

Turning to `COc1ccc(O)c(C(CCC(=O)NCCN2CCNCC2)c2ccccc2)c1` (stereo not drawn) [Example 32], the “extension of the gasping time” value in experiment [2] is listed as “significant difference in the extension of the gasping time”.

For the compound `COc1ccc(O)c(C(CCC(=O)N2CCCNCC2)c2ccccc2)c1` (stereo not drawn) [Example 30, 4-(2-hydroxy-5-methoxy)phenyl-4-phenyl-1-homopiperazinyl-1-oxobutane], in experiment [2], the “extension of the gasping time” value is given as “significant difference in the extension of the gasping time”.

For the compound `COc1ccc(O)c(C(CCC(=O)N2CCSCC2)c2ccccc2)c1` (stereo not drawn) [Example 8], the “inhibition … of the lipid peroxides” value in experiment [1] (at a dose of 5 mg/kg) was “caused inhibition”.

`COc1ccc(O)c(C(CCC(=O)OCCN(C)C)c2ccccc2)c1` (stereo not drawn) [Example 36, 4-(2-hydroxy-5-methoxy)phenyl-4-phenyl-1-(2-dimethylamino)ethyloxy-1-oxybutane]: the “inhibition … of the lipid peroxides” value in experiment [1] (at a dose of 10 mg/kg) is given as “caused inhibition”.

On to `COc1ccc(O)c(C(CCC(=O)N2CCN(C(=O)CCC(c3ccccc3)c3cc(OC)ccc3O)CC2)c2ccccc2)c1` (stereo not drawn) [Example 29, N,N'-bis[(4-(2-hydroxy-5-methoxy)phenyl-4-phenyl)-1-oxobutyl]piperazine], for which the “inhibition … of the lipid peroxides” value in experiment [1] (at a dose of 10 mg/kg) is “caused inhibition”.

As to `COc1ccc(O)c(C(CCC(=O)N2CCCN(C)CC2)c2ccccc2)c1` (stereo not drawn) [Example 18], the “inhibition … of the lipid peroxides” value in experiment [1] (at a dose of 50 mg/kg) was “significant difference in the inhibition of the formation of the lipid peroxides”.

For `COc1ccc(O)c(C(CCC(=O)N2CCN(CCO)CC2)c2ccccc2)c1` (stereo not drawn) [Example 7], the minimal effective dose in experiment [3] came to 25 mg/kg; in experiment [4] (Mus musculus, ip, 30 minutes before evacuation to 180 mmHg, vs physiological saline, read-out: Hypobaric Hypoxia EDmin (Minimum effective dose)), 50 mg/kg; in experiment [7], 25 mg/kg; in experiment [2] (Mus musculus, ip, 30 minutes before decapitation, vs saline control, read-out: Global Ischemia EDmin (Minimum effective dose)), 50 mg/kg. In addition, the “Normobaric Hypoxia EDmin (Minimum effective dose)” value in experiment [5] is on record as “Inactive at 50 mg/kg, ip”. Moreover, in experiment [6], the “Antilipid Peroxidation, % inhibition of the rat brain homogenate” value worked out at 88.0%.

On to `COc1ccc(O)c(C(CCC(=O)N(C)Cc2ccccc2)c2ccccc2)c1` (stereo not drawn) [Example 6], for which the “inhibition … of the lipid peroxides” value in experiment [1] (at a dose of 10 mg/kg) was “caused inhibition”. Moreover, the “extension of the gasping time” value in experiment [2] is “significant difference in the extension of the gasping time”.

Regarding `COc1ccc(O)c(C(CCC(=O)N2CCCC2)c2ccccc2)c1` (stereo not drawn) [Example 13], the “inhibition … of the lipid peroxides” value in experiment [1] (at a dose of 50 mg/kg) was “significant difference in the inhibition of the formation of the lipid peroxides”.

Turning to `COc1ccc(O)c(C(CCC(=O)N2CCNCC2)c2ccccc2)c1` (stereo not drawn) [Example 28, 4-(2-hydroxy-5-methoxy)phenyl-4-phenyl-1-piperazinyl-1-oxobutane], the “inhibition … of the lipid peroxides” value in experiment [1] (at a dose of 50 mg/kg) was “significant difference in the inhibition of the formation of the lipid peroxides”.

On to `COc1ccc(O)c(C(CCC(=O)NCCN2CCCCC2)c2ccccc2)c1` (stereo not drawn) [Example 19, 4-(2-hydroxy-5-methoxy)phenyl-4-phenyl-1-(2-piperidinyl)ethylamino-1-oxobutane hydrochloride], for which the “survival time (hypobaric hypoxia) compared with the control group” value in experiment [4] (dose not clearly stated) is reported as “reduced the survival time”. Besides, in experiment [2], the “extension of the gasping time” value is given as “significant difference in the extension of the gasping time”.

On to `COc1ccc(O)c(C(CCC(=O)NCCN2CCN(C(=O)CCC(c3ccccc3)c3cc(OC)ccc3O)CC2)c2ccccc2)c1` (stereo not drawn) [Example 33, 4-(2-hydroxy-5-methoxy)phenyl-1-[4-(2-(4-(2-hydroxy-5-methoxy)phenyl-4-phenyl-1-oxo)aminoethyl)piperadinyl]-1-oxobutane], for which, in experiment [4] (at a dose of 50 mg/kg or less, injected), the “extension of the survival time (hypobaric hypoxia)” value is recorded as “significant difference in the extension of the survival time”. For the same compound, the “inhibition … of the lipid peroxides” value in experiment [1] (at a dose of 50 mg/kg) is given as “significant difference in the inhibition of the formation of the lipid peroxides”. Besides, the “extension of the gasping time” value in experiment [2] is “significant difference in the extension of the gasping time”.

Regarding `COc1ccc(O)c(C(CCC(=O)N2CCCCC2)c2ccccc2)c1` (stereo not drawn) [Example 3], the “inhibition … of the lipid peroxides” value in experiment [1] (at a dose of 50 mg/kg) was “significant difference in the inhibition of the formation of the lipid peroxides”.
